Data published in US9657071B2, “IgE peptide vaccine” (NIPPON ZENYAKU KOGYO CO., LTD., priority 2012, dated 2017).

Experiments:
[1] = system: Dermatophagoides farinae antigen-specific IgE; experiment: Treatment experiment, artificially sensitized dogs: Dermatophagoides farinae antigen-specific IgE (ELISA); format: in vivo, dog; conditions: artificially sensitized beagles, s.c. 1 mg five times; one individual (04-95) of 4
Method: Dog: 8 artificially sensitized beagles (1 to 8 years old; 4 males and 4 females) were used. The ages and numbers of these 8 dogs were as follows:
Artificial sensitization: 400 μg of a Dermatophagoides farinae antigen (GREER) and 1 mg of an alum adjuvant (LSL) were subcutaneously administered at a 2-week interval, and IgE against the Dermatophagoides farinae antigen was confirmed by ELISA.
Grouping: on the basis of the ELISA results of IgE, the dogs were divided into 2 groups each involving 4 individuals uniformly distributed in terms of their IgE levels and ages.
Vaccine: the M4-7-11 peptide was used alone without being conjugated.
Administration method: 1 mg (500 μL of 2 mg/mL) per dose was subcutaneously administered five times at 2-week intervals.
Evaluation: serum was collected, and an IgG antibody against human IgE was assayed by ELISA. […] The IgE antibody against Dermatophagoides farinae was evaluated by ELISA.
The Dermatophagoides farinae antigen was prepared at 5 μg/mL in an immobilization buffer (0.05 M carbonate buffer, pH 9.6), then added at a concentration of 100 μL/well to an ELISA plate, and left overnight at 4° C. […] Then, the measurement was performed using a plate reader (Bio-Rad Laboratories, Inc.; model 680) (dual: measurement: 450 nm, control: 570 nm).

peptide-specific IgG = experiment: Peptide-specific IgG in serum of dogs given IgE peptide vaccine (ELISA); format: in vivo; conditions: dog
Method: The peptide used was MOUSE CH3-4-17-11 (mouse CH3 region amino acid sequence) (SEQ ID NO: 27). 2 mL (500 μg) of a solution of the peptide (concentration: 250 μg/mL) and 2 mL of a complete adjuvant (DIFCO ADJUVANT COMPLETE FREUND, Becton, Dickinson and Company Japan) were dispensed to microtubes. Liquids (4 mL per animal) emulsified by shaking for 15 minutes in a high-speed shaker were used as IgE peptide vaccines.
The animals used were 1 male and 7 females of 5- to 7-month-old beagles and were divided into an administration group (n=4; 08-33, 08-42, 08-43, and 08-44) and a non-administration group (n=4; 08-45, 08-46, 08-47, and 08-48).
The peptide was administered at days 0 (test start date), 14, and 28 in the first course and further at days 106 and 117 in the second course. The test substance was subcutaneously administered to the necks of the 4 animals in the administration group. The non-administration group was untreated.
At days 0, 14, 28, 42, 56, 70, 77, 84, 98, 106, 117, 131, 145, and 152 (4 time points (0, 14, 28, and 42) were excluded for the non-administration group), blood was collected from the jugular vein of each individual using a syringe. After separation of serum, the serum was used to measure peptide-specific IgG concentrations and IgE-specific IgG concentrations in the serum.
Each antigenic protein (MOUSE CH3-4-17-11 for peptide-specific IgG assay, and human IgE for IgE-specific IgG assay) was prepared at 1 μg/mL in an immobilization buffer (0.05 M carbonate buffer, pH 9.6), then added at a concentration of 100 μL/well to an ELISA plate, and left overnight at 4° C. The immobilization plate was washed once with PBS-T (0.05%). A blocking solution (4× Block Ace, Snow Brand Milk Products Co., Ltd.; UK-B80) was added thereto at a concentration of 200 μL/well. The plate was blocked by incubation at 37° C. for 1.5 hours. The serum was diluted 5000-fold with a diluent (PBS-T:Block Ace=9:1) and used. […] Then, the measurement was performed using a plate reader (Bio-Rad Laboratories, Inc.; model 680) (dual: measurement: 450 nm, control: 570 nm).

mouse IgE = experiment: Reactivity of serum of peptide-immunized rabbit with mouse IgE (ELISA); format: in vivo; conditions: 500 μg peptide + complete adjuvant s.c.
Method: 2 mL of the 250 μg/mL peptide (a total of 500 μg) used in Example 2 was mixed with an equal amount of a complete adjuvant (a total of 4 mL). Each rabbit was immunized with this mixture by the subcutaneous administration (amount of the peptide: 500 μg) at day 0 and weeks 2, 4, 6, and 8. Blood was collected 5 weeks after the week-8 administration (week 13 counted from day 0). Booster immunization was performed at week 14 counted from day 0, and blood was further collected 2 weeks thereafter (week 16 counted from day 0). Antibody titers in the collected blood were measured by ELISA. The serum of a rabbit that received no peptide was used as a control.
ELISA was performed by the following method: each […] recombinant CH3 solution of dog IgE, human IgE, mouse IgE, dog IgG, and cat IgE was immobilized at a concentration of 100 μL/well (100 ng/well) to a plate. The serum collected from the immunized rabbit was used (×200 to ×102400) as a primary antibody. An enzyme-labeled anti-rabbit IgG antibody (Zymed Laboratories Inc.) was used as a secondary antibody.

| Sequence | serum concentration of Dermatophagoides farinae antigen-specific IgE [1] | peptide-specific IgG concentrations in serum (O.D. values), one animal (08-44) (peptide-specific IgG; s.c., day 117 or later (second course)) [O.D.] | peptide-specific IgG in serum, administration group versus non-administration group (peptide-specific IgG; day 77, p<0.05) | level of IgG antibody against the peptide (peptide-specific IgG; summary of FIG. 6) | response of immobilized mouse IgE to peptide-administered rabbit serum (mouse IgE) |
| --- | --- | --- | --- | --- | --- |
| KKTSVSASQWYTKHHNNATT (listed as Mus musculus) [M4-7-11] | reduction in the serum concentration of IgE was confirmed in one individual | – | – | – | – |
| QEKKTSVSASQWYTKHHNNATTSIT (listed as Mus musculus) [MOUSE CH3-4-17-11] | – | ≥ 1.0 | significantly higher | increased | responded |
